This is an account of results in US20240252688A1, “COMPOSITIONS AND METHODS FOR ENHANCED PROTEIN PRODUCTION” (HDT Bio Corp., priority 2021, published 2024).

Data set [1] concerns A549-Dual cells. The data set can be described thus: Single-point kinase inhibitor library screen: nLuc expression from NP-1+mRNA-nLuc in IFN-treated cells. The note with it: compound 50 μM pre-treatment, NP-1+mRNA 20 ng/well + IFN; for fold induction at 50 µM: Homo sapiens, read-out: fold nLuc over RNA + IFN. The class given is cell-based, human. As to the method: (§1) The cells produce secreted embryonic alkaline phosphatase (SEAP), under the control of the interferon beta […] minimal promoter fused to five NF-κB binding sites. The cells also secrete lucia luciferase under the control of IFIT2 promoter.
To measure protein expression from mRNA, which is the primary readout for compound down selection, mRNA encoding a secreted version of nanoluciferase (mRNA-nLuc) was used. Protein expression was measured via a luminometer using standard techniques.
As additional criterion, expression in compound treated cells was compared relative to mRNA-transfected cells without IFN (“RNA only”) (data not shown).
A library of small molecule kinase inhibitors was screened for the ability to enhance expression of mRNA-encoded genes when co-delivered with mRNA.

Data set [2] has as its system IFIT2. The data set can be described thus: Single-point screen: IFIT2 activation (Lucia luciferase, QUANTI-Luc). The class given is cell-based, human. The note with it: A549-Dual cells, compound 50 μM pre-treatment, NP-1+mRNA 20 ng/well + IFN; for fold induction at 50 µM: Homo sapiens, 24 h, read-out: fold IFIT over IFN.
From the text: as §1

In data set [3] the test system is A549-Dual cells. The data set is described as follows: Single-point screen: cell viability by CellTiter-Glo. The note with it: A549-Dual cells incubated overnight with compound at 50 μM, then NP-1+mRNA 20 ng/well + IFN 1:50.
Procedure: Finally, cell lysates were assayed with the CellTiter-GLO® assay (Promega) to obtain a luminescent-based measure of cell viability. In summary, the readouts from the high throughput screen included the primary measure of nLuc protein expression and three secondary readouts: IFIT, NF-κB and cell viability.
For each assay, A549-dual cells were plated at a seeding density of about 5×10^4 cells per well. Cells were incubated overnight with compounds at 50 microMolar (μM) in 1% v/v dimethyl sulfoxide (DMSO). For control wells, 1% DMSO was added to each well. After about 24 hours, the culture medium was removed, and cells were transfected with NP-1+mRNA at 20 ng/mRNA/well in Opti-MEM® media (Thermofisher). Interferon (IFN) was diluted to 1:50 in all test wells except for the RNA only wells and media only wells. Anti-IFN was diluted 1:1000 in “RNA+anti-IFN+IFN” wells. Cells were incubated for 4 hours, and culture medium was added to the Opti-MEM® medium. After 24 hours, assay supernatants were collected and analyzed for nLuc expression, IFIT2 (qLuc), and NFκB (qBLUE-SEAP™, InvivoGen) activation. Cells were then lysed, and cell viability was determined by CellTiter-Glo® (Promega) assay.
Data set [4] concerns NF-κB. The data set can be described thus: Single-point screen: NFκB activation (SEAP reporter). In kind it is cell-based, human. The note with it: A549-Dual cells, compound 50 μM pre-treatment, NP-1+mRNA 20 ng/well + IFN; for fold induction at 50 µM: Homo sapiens, 24 h, read-out: fold NFkB over IFN.
From the text: as §1

The subject of data set [5] is IFIT2. The data set is described as follows: NP-35 co-transfection: IFIT2 induction. The class given is cell-based, human. The note with it: NP-35-formulated compound, A549-Dual cells.
In data set [6] the test system is NF-κB. The data set can be described thus: NP-35 co-transfection: NF-κB induction. The class given is cell-based, human. The note with it: highest concentrations of NP-35-formulated compound. As to the method:
The objective of this experiment was to evaluate co-transfection of LNP (e.g., NP-35) with lead small molecule inhibitor compounds for enhancing protein expression from repRNA in transfected cells. […] LNP was formulated according to NP-35 formulation. Additionally, nanoparticles were also formulated according to […] formulation. About 5×10^4 A549-Dual cells were incubated at 37° C. with 5% CO2 for 18-24 hours with the compound at a concentration ranging from 1 μg to 0.06 ng. The cells were then treated with repRNA-nLuc, IFN, and nanoparticles (NP-35 or NP-30). The treated cells were incubated at 37° C. with 5% CO2 for 18-24 hours. nLuc expression was measured by Nano-GLO assay and plotted against the concentration of repRNA-nLuc that was used for the transfection (FIG. 14A-14H).

Where a name gives a salt, the structure may show the parent alone.

Turning to `CCN1CCN(Cc2ccc(NC(=O)Nc3ccc(Oc4cc(NC)ncn4)cc3)cc2C(F)(F)F)CC1` [AST 487, 1-[4-[(4-ethylpiperazin-1-yl)methyl]-3-(trifluoromethyl)phenyl]-3-[4-[6-(methylamino)pyrimidin-4-yl]oxyphenyl]urea], the fold induction at 50 µM with A549-Dual cells [1] was found to be 183; in the data set with IFIT2 [2] it was 0.19; with NF-κB [4], 0.14. Further, the “% viability” value in the data set on A549-Dual cells [3] is 32%.
Consider `Cc1cc(Nc2cc(Cl)nc(Oc3ccc([N+](=O)[O-])cc3)n2)n[nH]1` [Autophinib, 6-chloro-NV-(5-methyl-1H-pyrazol-3-yl)-2-(4-nitrophenoxy)pyrindin-4-amine], for which the “fold nLuc over RNA + IFN” value in the data set with A549-Dual cells [1] was 128.89 fold. Also, the “fold IFIT over IFN” value in the data set with IFIT2 [2] was 1.09 fold. In addition, in the data set on A549-Dual cells [3], the “% viability” value is 49%. Besides, in the data set on NF-κB [4], the “fold NFkB over IFN” value amounted to 0.78 fold.
Consider `CC[C@H](CO)Nc1nc(NCc2ccccc2)c2ncn(C(C)C)c2n1` [Seliciclib, (2R)-2-[[6-(benzylamino)-9-propan-2-ylpurin-2-yl]amino]butan-1-ol], for which the fold induction at 50 µM in the data set with A549-Dual cells [1] turned out to be 118; in the data set with IFIT2 [2] it was 1.32; in the data set on NF-κB [4], 0.55. The “% viability” value with A549-Dual cells [3] was found to be 45%.
The corresponding values for `Cc1cc(O)c(-c2ccc([C@@H](C)CN)cc2)c2c1[nH]c(=O)c1sccc12` [OTS514, 9-[4-[(2R)-1-aminopropan-2-yl]phenyl]-8-hydroxy-6-methyl-5H-thieno[2,3-c]quinolin-4-one] are 349, 0.4, 0.35 and 66%.
For the molecule `O=C1Nc2ccccc2/C1=C/c1ccccn1` [GSK-3 inhibitor 1], in the data set with A549-Dual cells [1], the “fold nLuc over RNA + IFN” value worked out at 225.93 fold. The “fold IFIT over IFN” value in the data set with IFIT2 [2] was found to be 0.65 fold. Besides, the “% viability” value in the data set on A549-Dual cells [3] came out at 90%. The “fold NFkB over IFN” value with NF-κB [4] amounted to 1.00 fold.
For the molecule `C[C@@H](Oc1ccc2[nH]nc(/C=C/c3cnn(CCO)c3)c2c1)c1c(Cl)cncc1Cl` [LY2874455, 2-[4-[(E)-2-[5-[(1R)-1-(3,5-dichloropyridin-4-yl)ethoxy]-1H-indazol-3-yl]ethenyl]pyrazol-1-yl]ethanol], the fold induction at 50 µM in the data set with A549-Dual cells [1] stood at 150; in the data set on IFIT2 [2], 0.09; in the data set on NF-κB [4], 0.3. For the same molecule, the “% viability” value with A549-Dual cells [3] was determined as 58%.
With `CC(C)n1cnc2c(NCc3nc4c(F)c(F)ccc4[nH]3)nc(N3CCCC[C@H]3CCO)nc21` [CDK12-IN-3, 2-[(2S)-1-[6-[(4,5-difluoro-1H-benzimidazol-2-yl)methylamino]-9-propan-2-ylpurin-2-yl]piperidin-2-yl]ethanol], the IFIT2 induction result with IFIT2 [5] was “significant dose-dependent reduction in IFIT2 induction”.
For the molecule `Cn1nccc1Nc1nccc(-c2ccn([C@H](CO)c3ccc(Cl)c(F)c3)c(=O)c2)n1` [Ravoxertinib hydrochloride, 1-[(1S)-1-(4-chloro-3-fluorophenyl)-2-hydroxyethyl]-4-[2-[(2-methylpyrazol-3-yl)amino]pyrimidin-4-yl]pyridin-2-one], the fold induction at 50 µM with A549-Dual cells [1] came to 162; in the data set on IFIT2 [2], 0.24; with NF-κB [4], 1.17. Further, the “% viability” value with A549-Dual cells [3] amounted to 96%.
As to `Cc1[nH]ncc1-c1cc2nc([C@H]3CC4CCN3CC4)[nH]c(=O)c2s1` [(R)-Simurosertib], in the data set on A549-Dual cells [1], the “fold nLuc over RNA + IFN” value came to 200.44 fold. For the same molecule, the “fold IFIT over IFN” value with IFIT2 [2] was 1.84 fold. The “% viability” value with A549-Dual cells [3] turned out to be 86%. Further, the “fold NFkB over IFN” value in the data set on NF-κB [4] is given as 1.33 fold.
`Cl.O=C(NC1CCNCC1)c1n[nH]cc1NC(=O)c1c(Cl)cccc1Cl` [AT7519 (Hydrochloride), 4-[(2,6-dichlorobenzoyl)amino]-N-piperidin-4-yl-1H-pyrazole-5-carboxamide; hydrochloride]: the fold induction at 50 µM is 123 in the data set on A549-Dual cells [1], 0.88 in the data set with IFIT2 [2] and 0.43 in the data set with NF-κB [4]. Besides, the “% viability” value in the data set on A549-Dual cells [3] came out at 42%.
On to `CC(C)c1c2cc(-c3ccnc(NC4CCC(NC5CCOCC5)CC4)n3)ccc2nn1C` (stereo not shown) [LY2857785, 4-N-[4-(2-methyl-3-propan-2-ylindazol-5-yl)pyrimidin-2-yl]-1-N-(oxan-4-yl)cyclohexane-1,4-diamine], for which the “IFN-beta mediated NF-κB induction relative to cells transfected with NP-35” value with NF-κB [6] is recorded as “slight increase in IFN-beta mediated NF-κB induction”.
For `COc1cc(Nc2ncc3ccn(-c4cccc(CCC#N)c4)c3n2)cc(OC)c1OC` [Casein Kinase II Inhibitor IV, 3-[3-[2-(3,4,5-trimethoxyanilino)pyrrolo[2,3-d]pyrimidin-7-yl]phenyl]propanenitrile], the fold induction at 50 µM with A549-Dual cells [1] was 126; in the data set with IFIT2 [2] it was 0.79; with NF-κB [4] it was 0.46. Besides, the “% viability” value in the data set with A549-Dual cells [3] is on record as 18%.
The corresponding values for `C[C@@]1(O)CCC[C@H]1n1c(=O)c(C(F)F)cc2cnc(NC3CCN(S(C)(=O)=O)CC3)nc21` [PF-06873600, 6-(difluoromethyl)-8-[(1R,2R)-2-hydroxy-2-methylcyclopentyl]-2-[(1-methylsulfonylpiperidin-4-yl)amino]pyrido[2,3-d]pyrimidin-7-one] are 120, 1.08, 0.83 and 55%.
For `Cc1nc2c(NCc3cccc(S(C)(=O)=O)c3)nccn2c1-c1ccc(O)c(F)c1` [BF738735, 2-fluoro-4-[2-methyl-8-[(3-methylsulfonylphenyl)methylamino]imidazo[1,2-a]pyrazin-3-yl]phenol] the same measures were 239, 0.37, 0.62 and 93%.
For `CN(c1ccc(NC(=O)Nc2ccc(OC(F)(F)F)cc2)cc1)c1ccnc(Nc2cccc(S(N)(=O)=O)c2)n1` [GW806742X (hydrochloride), 1-[4-[methyl-[2-(3-sulfamoylanilino)pyrimidin-4-yl]amino]phenyl]-3-[4-(trifluoromethoxy)phenyl]urea] the same measures were 842, 3.93, 0.91 and 41%.
On to `Cc1ncc(-c2ccnc(Nc3ccc(S(C)(=O)=O)cc3)n2)n1C(C)C` [AZD-5438, 4-(1-isopropyl-2-methyl-1H-imidazol-5-yl)-N-(4-(methylsulfonyl)phenyl)pyrimidin-2-amine], for which the fold induction at 50 µM in the data set with A549-Dual cells [1] was 353; with IFIT2 [2] it was 2.39; with NF-κB [4], 0.38. Also, in the data set on A549-Dual cells [3], the “% viability” value amounted to 46%.
Turning to `Oc1cccc(Nc2ncc(F)c(Nc3cccc(O)c3)n2)c1` [Compound R112, 3-[[5-fluoro-2-(3-hydroxyanilino)pyrimidin-4-yl]amino]phenol], the values for the fold induction at 50 µM in the data set with A549-Dual cells [1], in the data set with IFIT2 [2] and in the data set with NF-κB [4] were 521, 1.33 and 1.16, respectively. In the data set on A549-Dual cells [3], the “% viability” value is given as 76%.
`COc1ccc(-c2c[nH]c3nccc(-c4ccsc4)c23)c(OC)c1` [ARN-3236, 3-(2,4-dimethoxyphenyl)-4-thiophen-3-yl-1-pyrrolo[2,3-b]pyridine]: the “fold nLuc over RNA + IFN” value in the data set with A549-Dual cells [1] stood at 322.60 fold. The “fold IFIT over IFN” value in the data set on IFIT2 [2] was 1.61 fold. For the same molecule, the “% viability” value with A549-Dual cells [3] is 33%. Also, the “fold NFkB over IFN” value with NF-κB [4] is 0.41 fold.
For the molecule `Nc1nc(N[C@H]2C[C@@H]3CC[C@H]2C3)sc1C(=O)c1ccccc1[N+](=O)[O-]` [MC180295, [4-amino-2-[[(1S,2S,4R)-2-bicyclo[2.2.1]heptanyl]amino]-1,3-thiazol-5-yl]-(2-nitrophenyl)methanone], the “IFN-beta mediated NF-κB induction relative to cells transfected with NP-35” value in the data set with NF-κB [6] is recorded as “slight increase in IFN-beta mediated NF-κB induction”.
